For data set [1], the target named is T1, acetylcholinesterase (Brain AChE) (Rattus norvegicus, UniProt P37136).
T1 construct: corpora striata dissected free, weighed and homogenized in 19 volumes; from tissue; host or cells: corpora striata of male Wistar rats, crude homogenate in phosphate buffer
T1 sequence (P37136 32-614): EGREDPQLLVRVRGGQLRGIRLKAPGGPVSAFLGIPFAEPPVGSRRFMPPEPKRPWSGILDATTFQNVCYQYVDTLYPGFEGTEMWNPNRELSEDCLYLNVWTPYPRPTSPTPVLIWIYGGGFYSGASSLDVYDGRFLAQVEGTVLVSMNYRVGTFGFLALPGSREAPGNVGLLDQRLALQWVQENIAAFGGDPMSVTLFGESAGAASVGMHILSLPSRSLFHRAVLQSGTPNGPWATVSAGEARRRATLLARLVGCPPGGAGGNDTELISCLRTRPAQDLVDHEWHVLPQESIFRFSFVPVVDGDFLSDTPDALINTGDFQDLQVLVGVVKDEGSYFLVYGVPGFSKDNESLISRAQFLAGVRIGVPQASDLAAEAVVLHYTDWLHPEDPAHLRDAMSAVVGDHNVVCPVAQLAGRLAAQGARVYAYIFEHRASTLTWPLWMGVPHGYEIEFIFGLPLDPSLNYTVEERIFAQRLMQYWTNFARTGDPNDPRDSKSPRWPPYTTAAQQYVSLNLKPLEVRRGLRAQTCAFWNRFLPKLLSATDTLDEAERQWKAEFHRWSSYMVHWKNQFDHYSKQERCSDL
The conditions noted are these: background statement; brain vs serum AChE; cited from earlier work.

For data set [2], the system named is scopolamine-induced memory deficit. The experiment in a line: Dark Avoidance Assay (scopolamine induced memory deficit reversal). It counts as in vivo, mice. The following applies: Mus musculus, sc; mice, 0.31 mg/kg s.c., 24 h; read-out: % of Animals with Scopolamine Induced Memory Deficit Reversal. On the procedure: In this assay mice are tested for their ability to remember an unpleasant stimulus for a period of 24 hours. A mouse is placed in a chamber that contains a dark compartment; a strong incandescent light drives it to the dark compartment, where an electric shock is administered through metal plates on the floor. The animal is removed from the testing apparatus and tested again, 24 hours later, for the ability to remember the electric shock.
If scopolamine, an anticholinergic that is known to cause memory impairment, is administered before an animal's initial exposure to the test chamber, the animal re-enters the dark compartment shortly after being placed in the test chamber 24 hours later. This effect of scopolamine is blocked by an active test compound, resulting in a greater interval before re-entry into the dark compartment.
The results for an active compound are expressed as the percent of a group of animals in which the effect of scopolamine is blocked, as manifested by an increased interval between being placed in the test chamber and re-entering the dark compartment.

Another data set has as its system norepinephrine uptake. It counts as biochemical. The following applies: rat brain synaptosomes, 50 nM 3H-NE, 37° C., 5 min; read-out: Reuptake Inhibition of neurotransmitters, Norepinephrine.
A further data set can be described thus: Acute toxicity (LD50). It counts as in vivo. The conditions noted are these: in vivo, ip, death within 24 hours. On the procedure:
LD50 is determined by the dose (mg/kg) at which 50% of the test animals die within 24 hours. In many cases this dose is an approximation.

In data set [3] the target is T2, butyrylcholinesterase (Serum AChE) (Homo sapiens, UniProt P06276).
T2 construct: A vial of lyophilized human serum; purchased Biodynamics, Houston, Tex; (Precilip); host or cells: lyophilized human serum, reconstituted in water; enzyme not purified
The following applies: background statement; cited from earlier work.

A further data set concerns butyrylcholinesterase. The conditions noted are these: ex vivo; cited from earlier work.

T2 sequence (P06276 29-602): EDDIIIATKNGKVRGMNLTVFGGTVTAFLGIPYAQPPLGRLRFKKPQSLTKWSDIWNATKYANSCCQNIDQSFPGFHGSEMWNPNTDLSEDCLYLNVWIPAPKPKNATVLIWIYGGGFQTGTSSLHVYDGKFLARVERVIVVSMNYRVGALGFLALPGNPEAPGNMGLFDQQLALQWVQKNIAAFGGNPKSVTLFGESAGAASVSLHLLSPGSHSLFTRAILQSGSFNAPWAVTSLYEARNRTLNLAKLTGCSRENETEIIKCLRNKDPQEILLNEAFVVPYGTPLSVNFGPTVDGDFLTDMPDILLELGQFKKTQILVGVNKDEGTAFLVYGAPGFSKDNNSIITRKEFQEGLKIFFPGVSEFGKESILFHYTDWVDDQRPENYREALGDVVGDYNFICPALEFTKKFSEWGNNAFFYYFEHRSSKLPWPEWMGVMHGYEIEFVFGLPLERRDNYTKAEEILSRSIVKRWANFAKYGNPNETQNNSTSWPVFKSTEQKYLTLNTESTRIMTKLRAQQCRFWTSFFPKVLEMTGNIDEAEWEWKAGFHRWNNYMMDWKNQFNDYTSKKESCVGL

Regarding `CNC(=O)Oc1ccc2c(c1)[C@]1(C)CCN(C)[C@@H]1N2C` [Physostigmine, (3aS-cis)-1,2,3,3a,8,8a-hexahydro-1,3a,8-trimethylpyrrolo[2,3-b]indol-5-ol, methyl carbamate ester, reference compound], the “specificity of AChE inhibition” value in data set [1] is “an unspecific AChE inhibitor”. The responders at 0.31 mg/kg in data set [2] was 20%. The IC50 in the data set on norepinephrine uptake was > 20 µM. In addition, in “Acute toxicity (LD50)”, the 50% lethal dose (LD50) (in general, the dose at which mortality reaches 50%) at 24 h is ~3 mg/kg.

Turning to `CC(C)NP(=O)(NC(C)C)OP(=O)(NC(C)C)NC(C)C` [ISO-OMPA, tetraisopropyl pyrophosphoramide], the “selectivity of inhibition of butyrylcholinesterase” value in data set [3] is reported as “selective inhibitors of butyrylcholinesterase”. Further, the “cholinomimetic effects correlated with butyrylcholinesterase inhibition” value with butyrylcholinesterase is listed as “not correlated with any significant acute chloinomimetic effects”.
